# Columns and labels:
# Pannexin 1 (PANX1) [1] = molecular target: T1, Pannexin 1 (PANX1) (Homo sapiens, UniProt Q96RD7); assay: To-Pro-3 uptake in HEK293T cells at […]; type: cell-based; parameters: C-terminally truncated hPANX1-CT-EGFP; details: HEK-293T; read-out: Mean ± SEM ^a)
# Pannexin 1 (PANX1) [2] = molecular target: T1, Pannexin 1 (PANX1); assay: whole-cell voltage clamp in HEK293T cells (-50 mV); CETSA (Tagg […] to […] °C); type: cell-based; parameters: hPANX1(TEV)-EGFP cleaved by TEVp (currents); full-length hPANX1-FLAG (CETSA)
# T1 sequence (Q96RD7 1-379 limits assumed): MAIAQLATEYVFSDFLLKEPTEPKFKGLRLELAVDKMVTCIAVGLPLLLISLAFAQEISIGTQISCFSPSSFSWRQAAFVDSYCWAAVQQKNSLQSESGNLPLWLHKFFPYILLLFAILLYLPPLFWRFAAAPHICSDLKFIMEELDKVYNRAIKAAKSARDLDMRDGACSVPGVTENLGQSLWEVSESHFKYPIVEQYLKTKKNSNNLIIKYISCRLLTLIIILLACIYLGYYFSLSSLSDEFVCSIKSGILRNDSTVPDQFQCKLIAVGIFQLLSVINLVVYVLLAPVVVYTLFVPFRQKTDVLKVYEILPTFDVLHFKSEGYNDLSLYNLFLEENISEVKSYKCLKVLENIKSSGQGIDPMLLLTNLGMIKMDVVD
inhibition at 20 µM (Pannexin 1 (PANX1) [1]) [%],IC50 (Pannexin 1 (PANX1) [2]) [µM],Structure (SMILES)
87.3 ± 1.3,,"N[C@@H]1[C@H]2CN(c3nc4c(cc3F)c(=O)c(C(=O)O)cn4-c3ccc(F)cc3F)C[C@@H]12 [Trovan, trovafloxacin]"
,~0.73,"COc1ccc(Cn2cc(C(=O)O)c(=O)c3cc(F)c(N4CCN(C)CC4)nc32)c(OC)c1 [compound 12, lithium 1‐(2,4‐dimethoxybenzyl)−6‐fluoro‐7‐(4‐methylpiperazin‐1‐yl)−4‐oxo‐1,4‐dihydro‐1,8‐naphthyridine‐3‐carboxylate]"
